Tests used:
Format in all cases: in vivo
[1] = tested on: Leptochloa chinensis; experiment: Test Example 3: herbicidal effect by foliage application, Wagner pot (symbol D); details: application herbicide amount 320 g/ha
In short: (§1)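 Seeds sown in alluvial soil kept under 0.1–0.5 cm water, greenhouse 25–30 °C; 14 d growth. Leaves treated by small sprayer with water-diluted emulsion at a predetermined rate. Effect graded by set scale, 3 weeks.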

[2] = tested on: corn; experiment: Test Example 4: effect on crop by soil treatment (symbol c); details: for c (corn) effect on crop grade: application herbicide amount 320 g/ha
In short: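 Seeds were sown in spots on sterilized diluvial soil in a plastic box and covered with about 1.5 cm of soil. Plants were then grown in a greenhouse at 25° C. to 30° C.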

[3] = tested on: Setaria viridis; experiment: Test Example 5: herbicidal effect by foliage application, plastic box (symbol G); details: 320 g/ha, 3 weeks after application
In short: (§2)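 Seeds were sown in sterilized diluvial soil, covered with about 1.5 cm of soil and grown 14 days in a greenhouse at 25° C. to 30° C. An emulsifiable formulation diluted in water to a set rate was sprayed over foliage, and injury was scored 3 weeks later.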

[4] = tested on: Scirpus juncoides; experiment: Test Example 1: herbicidal activity, application before weed generation in submerged conditions (symbol B); details: application herbicide amount 320 g/ha
In short: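 Scores run 0 to 5 by herbicidal ratio, with 5 meaning 90% or more and 0 meaning 5% or lower, read 3 weeks after treatment. Compound was applied as a diluted emulsion to the water surface of submerged alluvial-soil pots on the day weed seeds were sown.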

[5] = tested on: Cyperus difformis; experiment: Test Example 3: herbicidal effect by foliage application, Wagner pot (symbol E); details: application herbicide amount 320 g/ha
In short: as §1

[6] = tested on: Echinochloa crus-galli var. crus-galli; experiment: Test Example 4: herbicidal effect by soil treatment (symbol H); details: for H (Echinochloa crus-galli var. crus-galli) herbicidal effect grade: application herbicide amount 320 g/ha
In short: (§3)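 Seeds were sown in sterilized diluvial soil, covered with about 1.5 cm of soil, and the soil surface was sprayed with a water-diluted emulsion of the compound at a predetermined rate. Plants grew in a greenhouse at 25° C. to 30° C.; effects were scored visually 3 weeks after application.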

[7] = tested on: beet; experiment: Test Example 4: effect on crop by soil treatment (symbol f); details: for f (beet) effect on crop grade: application herbicide amount 320 g/ha
In short: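 Crop seeds, among them rice, wheat, beet and rapeseed, were sown in sterilized diluvial soil and covered with about 1.5 cm of soil. Boxes were kept in a greenhouse at 25° C. to 30° C. for plant growth.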

[8] = tested on: wheat; experiment: Test Example 5: effect on crop by foliage application, plastic box (symbol e); details: 320 g/ha, 3 weeks after application
In short: (§4)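 A greenhouse held between 25° C. and 30° C. was used to grow plants sown spot-wise, beneath ~1.5 cm of soil, in boxes of sterilized diluvial soil.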

[9] = tested on: Amaranthus retroflexus; experiment: Test Example 4: herbicidal effect by soil treatment (symbol N); details: for N (Amaranthus retroflexus) herbicidal effect grade: application herbicide amount 320 g/ha
In short: as §3

[10] = tested on: Veronica persica; experiment: Test Example 4: herbicidal effect by soil treatment (symbol R); details: for R (Veronica persica) herbicidal effect grade: application herbicide amount 320 g/ha
In short: as §3

[11] = tested on: transplanted rice plant; experiment: Test Example 1: effect on crop, application before weed generation in submerged conditions (symbol a); details: application herbicide amount 320 g/ha
In short: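 Alluvial soil pots flooded to 4 cm water, sown with Echinochloa oryzacola, Scirpus juncoides and Monochoria vaginalis, then transplanted with 2.5 leaf stage rice seedlings; pre-emergence application. Greenhouse 25° C. to 30° C.; scored 0–5 by herbicidal ratio 3 weeks after application.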

[12] = tested on: soybean; experiment: Test Example 5: effect on crop by foliage application, plastic box (symbol d); details: 320 g/ha, 3 weeks after application
In short: as §4

[13] = tested on: Veronica persica; experiment: Test Example 5: herbicidal effect by foliage application, plastic box (symbol R); details: 320 g/ha, 3 weeks after application
In short: as §2

[14] = tested on: Lolium multiflorum Lam.; experiment: Test Example 4: herbicidal effect by soil treatment (symbol K); details: for K (Lolium multiflorum Lam.) herbicidal effect grade: application herbicide amount 320 g/ha
In short: as §3

[15] = tested on: Galium spurium; experiment: Test Example 5: herbicidal effect by foliage application, plastic box (symbol Q); details: 320 g/ha, 3 weeks after application
In short: as §2

SMILES	herbicidal effect on D (Leptochloa chinensis), grade 0-5 [1]	c (corn) effect on crop grade [2]	G: Setaria viridis, herbicidal effect grade [3]	Herbicidal effect grade, B: Scirpus juncoides [4]	herbicidal effect on E, grade 0-5 [5]	H (Echinochloa crus-galli var. crus-galli) herbicidal effect grade [6]	f (beet) effect on crop grade [7]	e: wheat, effect on crop grade [8]	N (Amaranthus retroflexus) herbicidal effect grade [9]	R (Veronica persica) herbicidal effect grade [10]	Effect grade on crop, a: transplanted rice plant [11]	d: soybean, effect on crop grade [12]	R: Veronica persica, herbicidal effect grade [13]	K (Lolium multiflorum Lam.) herbicidal effect grade [14]	Q: Galium spurium, herbicidal effect grade [15]	further results
CON=C(C)CC1CC(OC(=O)C(C)Oc2ccccc2)=C(c2c(C)cc(C)cc2C)C1=O (stereo not shown) [1-060]	5 (Herbicidal ratio of 90% or more (almost completely withered))	4 (Herbicidal ratio of 70% or higher and lower than 90%)	5 (Herbicidal ratio of 90% or more (almost completely withered))	4 (Herbicidal ratio of 70% or higher and lower than 90%)	5 (Herbicidal ratio of 90% or more (almost completely withered))	5 (Herbicidal ratio of 90% or more (almost completely withered))	0 (Herbicidal ratio of 5% or lower (almost no effect))	5 (Herbicidal ratio of 90% or more (almost completely withered))	5 (Herbicidal ratio of 90% or more (almost completely withered))	0 (Herbicidal ratio of 5% or lower (almost no effect))	5 (Herbicidal ratio of 90% or more (almost completely withered))	4 (Herbicidal ratio of 70% or higher and lower than 90%)	3 (Herbicidal ratio of 40% or higher and lower than 70%)	5 (Herbicidal ratio of 90% or more (almost completely withered))	–	–
CON=C(C)CC1CC(OC(=O)COc2ccccc2[N+](=O)[O-])=C(c2c(C)cc(C)cc2C)C1=O (stereo not shown) [1-071]	5 (Herbicidal ratio of 90% or more (almost completely withered))	4 (Herbicidal ratio of 70% or higher and lower than 90%)	5 (Herbicidal ratio of 90% or more (almost completely withered))	4 (Herbicidal ratio of 70% or higher and lower than 90%)	5 (Herbicidal ratio of 90% or more (almost completely withered))	5 (Herbicidal ratio of 90% or more (almost completely withered))	–	5 (Herbicidal ratio of 90% or more (almost completely withered))	4 (Herbicidal ratio of 70% or higher and lower than 90%)	0 (Herbicidal ratio of 5% or lower (almost no effect))	5 (Herbicidal ratio of 90% or more (almost completely withered))	4 (Herbicidal ratio of 70% or higher and lower than 90%)	1 (Herbicidal ratio of 5% or higher and lower than 20%)	5 (Herbicidal ratio of 90% or more (almost completely withered))	2 (Herbicidal ratio of 20% or higher and lower than 40%)	–
CON=C(C)CC1CC(OC(=O)COc2cccc(OC)c2)=C(c2c(C)cc(C)cc2C)C1=O (stereo not shown) [1-068]	5 (Herbicidal ratio of 90% or more (almost completely withered))	5 (Herbicidal ratio of 90% or more (almost completely withered))	5 (Herbicidal ratio of 90% or more (almost completely withered))	4 (Herbicidal ratio of 70% or higher and lower than 90%)	5 (Herbicidal ratio of 90% or more (almost completely withered))	5 (Herbicidal ratio of 90% or more (almost completely withered))	0 (Herbicidal ratio of 5% or lower (almost no effect))	5 (Herbicidal ratio of 90% or more (almost completely withered))	4 (Herbicidal ratio of 70% or higher and lower than 90%)	0 (Herbicidal ratio of 5% or lower (almost no effect))	5 (Herbicidal ratio of 90% or more (almost completely withered))	4 (Herbicidal ratio of 70% or higher and lower than 90%)	3 (Herbicidal ratio of 40% or higher and lower than 70%)	5 (Herbicidal ratio of 90% or more (almost completely withered))	–	–
COCCON=C(C)CC1CC(O)=C(c2c(C)cc(C)cc2C)C1=O (stereo not shown) [1-041]	5 (Herbicidal ratio of 90% or more (almost completely withered))	4 (Herbicidal ratio of 70% or higher and lower than 90%)	5 (Herbicidal ratio of 90% or more (almost completely withered))	5 (Herbicidal ratio of 90% or more (almost completely withered))	5 (Herbicidal ratio of 90% or more (almost completely withered))	5 (Herbicidal ratio of 90% or more (almost completely withered))	–	5 (Herbicidal ratio of 90% or more (almost completely withered))	3 (Herbicidal ratio of 40% or higher and lower than 70%)	3 (Herbicidal ratio of 40% or higher and lower than 70%)	5 (Herbicidal ratio of 90% or more (almost completely withered))	4 (Herbicidal ratio of 70% or higher and lower than 90%)	3 (Herbicidal ratio of 40% or higher and lower than 70%)	5 (Herbicidal ratio of 90% or more (almost completely withered))	3 (Herbicidal ratio of 40% or higher and lower than 70%)	–
CC#CC(=O)OC1=C(c2c(C)cc(C)cc2C)C(=O)C(CC(C)=NOC)C1 (stereo not shown) [1-095]	5 (Herbicidal ratio of 90% or more (almost completely withered))	–	–	5 (Herbicidal ratio of 90% or more (almost completely withered))	5 (Herbicidal ratio of 90% or more (almost completely withered))	–	–	–	–	–	5 (Herbicidal ratio of 90% or more (almost completely withered))	–	–	–	–	c: corn, effect grade on crop ([2]; 320 g/ha): 5 (Herbicidal ratio of 90% or more (almost completely withered)); G: Setaria viridis, herbicidal effect (criteria 0-5) [3]: 5 (Herbicidal ratio of 90% or more (almost completely withered)); H: Echinochloa crus-galli var. crus-galli, herbicidal effect grade ([6]; 320 g/ha): 5 (Herbicidal ratio of 90% or more (almost completely withered)); f: beet, effect grade on crop ([7]; 320 g/ha): 0 (Herbicidal ratio of 5% or lower (almost no effect)); e: wheat, effect on crop (criteria 0-5) [8]: 5 (Herbicidal ratio of 90% or more (almost completely withered)); N: Amaranthus retroflexus, herbicidal effect grade ([9]; 320 g/ha): 4 (Herbicidal ratio of 70% or higher and lower than 90%); R: Veronica persica, herbicidal effect grade ([10]; 320 g/ha): 1 (Herbicidal ratio of 5% or higher and lower than 20%); d: soybean, effect on crop (criteria 0-5) [12]: 2 (Herbicidal ratio of 20% or higher and lower than 40%); R: Veronica persica, herbicidal effect (criteria 0-5) [13]: 3 (Herbicidal ratio of 40% or higher and lower than 70%); K: Lolium multiflorum Lam., herbicidal effect grade ([14]; 320 g/ha): 5 (Herbicidal ratio of 90% or more (almost completely withered))
